A word on the IC50: it is the point on the concentration scale where inhibition reaches its midpoint. What is called EC50 is the midpoint of the concentration-response curve.

The text below walks through data of US12590099B2, “Inhibitors of histone deacetylase useful for the treatment or prevention of HIV infection” (Merck Sharp & Dohme LLC, priority 2018, dated 2026).

Read-outs that look alike come from different tables or passages of the source.

One experiment concerns the target T1, Recombinant human HDAC8 (Homo sapiens, UniProt Q9BY41).
T1 construct: purchased Enzo Life Sciences BML-SE145-0100
T1 sequence (Q9BY41 1-377): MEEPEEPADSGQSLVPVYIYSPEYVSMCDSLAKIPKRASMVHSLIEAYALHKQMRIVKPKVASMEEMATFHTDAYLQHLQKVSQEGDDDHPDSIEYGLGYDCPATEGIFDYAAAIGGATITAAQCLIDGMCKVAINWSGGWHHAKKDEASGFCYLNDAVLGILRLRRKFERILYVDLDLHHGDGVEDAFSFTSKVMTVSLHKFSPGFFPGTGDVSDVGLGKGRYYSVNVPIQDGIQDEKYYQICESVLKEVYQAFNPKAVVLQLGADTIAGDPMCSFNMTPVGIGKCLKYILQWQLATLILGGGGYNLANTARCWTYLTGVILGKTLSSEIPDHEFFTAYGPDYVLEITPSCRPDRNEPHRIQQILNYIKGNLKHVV
The experiment is described as follows: Human HDAC enzyme inhibitor Fluor-de-Lys assay, HDAC8. In kind it is biochemical. Conditions: recombinant human HDAC8, Fluor-de-Lys assay.

Experiment [1] addresses T2, Recombinant human HDAC3/SMRT heterodimer (Homo sapiens, UniProt O15379).
T2 construct: FLAG (C); made in house
The experiment is described as follows: Human HDAC enzyme inhibitor Fluor-de-Lys assay, HDAC3/SMRT. The following applies: recombinant human HDAC3/SMRT, Fluor-de-Lys assay. In kind it is biochemical.

Another experiment relates to KARN cells (Jurkat 2C4). Nature of the experiment: cells. Type of experiment: cell-based. The following applies: luciferase induction, 100% = 2 μM SAHA. Put shortly:
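Jurkat 2C4 (KARN) cells dosed with test compounds up to 40 μM final, 0.4% DMSO, overnight at 5% CO2; luciferase read by Steady-Glo luminescence after 10 min at room temperature. DMSO set as 0% and 2 μM SAHA as 100% induction; 4-parameter fit of percent activation.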

A further experiment addresses T3, Recombinant human HDAC2 (Homo sapiens, UniProt Q92769).
T3 construct: Full length human HDAC2-FLAG was expressed in baculovirus infected Sf9 cells; FLAG (C); made in house; host or cells: Sf9 (baculovirus)
Nature of the experiment: Human HDAC enzyme inhibitor Fluor-de-Lys assay, HDAC2. In kind it is biochemical. The following applies: recombinant human HDAC2, Fluor-de-Lys assay. The method, boiled down: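 Fluor-de-Lys format at room temperature (23° C.): compounds titrated 10-point, 1:3, preincubated with HDAC before substrate addition. Developer with excess HDAC inhibitor ends the reaction, and trypsin-liberated AMC fluorescence is the read-out.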

Setting [2] is: Homo sapiens, Jurkat, read-out: Karn EC50 (nM) 0.1% NHS, 0.1% normal human serum.
[3] abbreviates: Homo sapiens, Jurkat, read-out: Karn EC50 (nM) 5% NHS, 5% normal human serum.

T2 sequence (O15379 whole entry): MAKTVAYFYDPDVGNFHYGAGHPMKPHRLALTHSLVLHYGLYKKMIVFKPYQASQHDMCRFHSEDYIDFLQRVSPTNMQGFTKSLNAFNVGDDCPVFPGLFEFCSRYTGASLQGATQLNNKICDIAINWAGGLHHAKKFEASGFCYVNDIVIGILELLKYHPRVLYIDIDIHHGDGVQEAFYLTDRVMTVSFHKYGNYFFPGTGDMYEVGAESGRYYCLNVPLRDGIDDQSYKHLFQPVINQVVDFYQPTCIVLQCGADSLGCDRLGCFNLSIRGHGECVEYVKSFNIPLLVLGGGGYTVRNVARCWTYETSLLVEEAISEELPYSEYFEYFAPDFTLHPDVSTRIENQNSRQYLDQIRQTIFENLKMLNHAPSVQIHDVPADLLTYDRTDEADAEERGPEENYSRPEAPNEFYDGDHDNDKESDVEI
T2 sequence (Q9Y618 1-899 partner limits assumed): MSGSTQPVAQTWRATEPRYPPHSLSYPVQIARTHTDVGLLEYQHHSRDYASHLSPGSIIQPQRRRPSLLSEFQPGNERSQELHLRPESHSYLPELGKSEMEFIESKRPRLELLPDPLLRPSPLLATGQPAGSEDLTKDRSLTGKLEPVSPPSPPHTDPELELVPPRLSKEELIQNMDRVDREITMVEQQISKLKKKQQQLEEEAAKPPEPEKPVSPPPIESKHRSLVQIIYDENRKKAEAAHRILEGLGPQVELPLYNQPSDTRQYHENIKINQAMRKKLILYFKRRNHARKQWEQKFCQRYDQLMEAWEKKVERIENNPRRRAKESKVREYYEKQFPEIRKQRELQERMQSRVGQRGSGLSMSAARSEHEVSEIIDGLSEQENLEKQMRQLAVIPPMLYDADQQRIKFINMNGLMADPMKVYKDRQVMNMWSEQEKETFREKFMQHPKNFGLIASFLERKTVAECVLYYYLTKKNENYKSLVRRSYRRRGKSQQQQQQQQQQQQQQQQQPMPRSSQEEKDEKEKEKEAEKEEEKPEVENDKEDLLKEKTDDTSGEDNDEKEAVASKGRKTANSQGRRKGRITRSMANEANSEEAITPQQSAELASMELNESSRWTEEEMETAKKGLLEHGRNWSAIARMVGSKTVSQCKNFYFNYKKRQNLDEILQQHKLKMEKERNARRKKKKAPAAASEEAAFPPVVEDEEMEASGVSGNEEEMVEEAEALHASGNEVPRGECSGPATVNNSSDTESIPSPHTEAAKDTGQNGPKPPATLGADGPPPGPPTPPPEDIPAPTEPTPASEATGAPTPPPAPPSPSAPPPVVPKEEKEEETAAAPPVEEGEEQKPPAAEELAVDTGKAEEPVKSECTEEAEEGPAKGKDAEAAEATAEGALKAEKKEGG
T3 sequence (Q92769 whole entry): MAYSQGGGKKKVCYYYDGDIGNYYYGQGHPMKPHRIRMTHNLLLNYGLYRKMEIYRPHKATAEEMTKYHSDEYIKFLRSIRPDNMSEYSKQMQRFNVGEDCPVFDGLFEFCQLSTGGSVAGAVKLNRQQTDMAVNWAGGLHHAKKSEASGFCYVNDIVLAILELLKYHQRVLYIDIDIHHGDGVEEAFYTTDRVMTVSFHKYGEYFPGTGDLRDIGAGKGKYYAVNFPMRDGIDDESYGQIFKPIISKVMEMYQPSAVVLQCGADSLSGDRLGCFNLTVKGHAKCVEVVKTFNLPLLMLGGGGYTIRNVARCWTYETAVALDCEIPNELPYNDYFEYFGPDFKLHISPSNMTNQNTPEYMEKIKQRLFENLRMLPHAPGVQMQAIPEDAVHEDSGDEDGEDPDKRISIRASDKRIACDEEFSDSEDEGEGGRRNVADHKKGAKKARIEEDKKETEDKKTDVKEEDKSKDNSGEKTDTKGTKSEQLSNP

For the compound `CCC(=O)CCCCC[C@H](NC(=O)C1=NOC2(CCN(CC3CC3)CC2)C1)c1ncc(-c2cc3ccc(=O)n(C)c3cc2F)o1` [Compound 387], the IC50 on Recombinant human HDAC8 was above 900 nM; in experiment [1], 48.1 nM; at Recombinant human HDAC2 it was 207 nM. Moreover, the EC50 is 1540 nM in the experiment with KARN cells (Jurkat 2C4) (setting [2]) and 1700 nM with KARN cells (Jurkat 2C4) (setting [3]).
The matching figures for `CCC(=O)CCCCC[C@H](NC(=O)[C@H]1CC12CCN(C)CC2)c1ncc(-c2cc3ocnc3cc2F)o1` [Compound 389]: above 900 nM, 30.2 nM, 98.3 nM, 1120 nM and 1550 nM.
For the compound `CCC(=O)CCCCC[C@H](NC(=O)C1=NOC2(CCN(C)CC2)C1)c1ncc(-c2ccc(Cl)cc2OC)o1` [Compound 390], the concentration for half-maximal inhibition (IC50) at Recombinant human HDAC8 was above 900 nM; in experiment [1], 39.4 nM; on Recombinant human HDAC2, 159 nM. The concentration for a half-maximal effect (EC50) in the experiment with KARN cells (Jurkat 2C4) (read-out: Karn EC50 (nM) 0.1% NHS, 0.1% normal human serum) worked out at 674 nM; with KARN cells (Jurkat 2C4) (read-out: Karn EC50 (nM) 5% NHS, 5% normal human serum) it was 1680 nM.
As to `CCC(=O)CCCCC[C@H](NC(=O)C1=NOC2(CCN(C)CC2)C1)c1ncc(-c2ccc(-c3ccccn3)cc2OC)o1` [Compound 391], the IC50 on Recombinant human HDAC8 is above 900 nM; in experiment [1], 18.6 nM; at Recombinant human HDAC2 it was 74.5 nM. Besides, the EC50 with KARN cells (Jurkat 2C4) (setting [2]) was 460 nM; in the experiment on KARN cells (Jurkat 2C4) (setting [3]), 541 nM.
Consider `CCC(=O)CCCCC[C@H](NC(=O)[C@H]1CC12CCN(CC1CC1)CC2)c1ncc(-c2ccc3nc(C)ccc3c2)[nH]1` [Compound 393], for which the IC50 was above 900 nM on Recombinant human HDAC8, 0.05 nM in experiment [1] and 0.1 nM at Recombinant human HDAC2. Besides, the EC50 turned out to be 21 nM in the experiment with KARN cells (Jurkat 2C4) (setting [2]) and 22 nM in the experiment on KARN cells (Jurkat 2C4) (setting [3]).
With `CCC(=O)CCCCC[C@H](NC(=O)C1=NOC2(CCN(C)CC2)C1)c1ncc(-c2ccc(-c3ccncc3)cc2OC)o1` [Compound 395], the half-inhibitory concentration (IC50) at Recombinant human HDAC8 was above 900 nM; in experiment [1] it was 6.78 nM; at Recombinant human HDAC2, 36.3 nM. The 50% effective concentration (EC50) with KARN cells (Jurkat 2C4) (setting [2]) was found to be 618 nM; with KARN cells (Jurkat 2C4) (setting [3]) it was 725 nM.
The matching figures for `CCC(=O)CCCCC[C@H](NC(=O)C1=NOC2(CCN(C)CC2)C1)c1ncc(-c2cc3ccc(N(C)C)nc3cc2OC)o1` [Compound 397]: above 900 nM, 2.66 nM, 6.6 nM, 279 nM and 327 nM.
The matching figures for `CCC(=O)CCCCC[C@H](NCC1CC1)c1ncc(-c2cc3ccc(C)nc3cc2OC)[nH]1` [Compound 398, (S)-9-((cyclopropylmethyl)amino)-9-(5-(7-methoxy-2-methylquinolin-6-yl)-1H-imidazol-2-yl)nonan-3-one]: above 900 nM, 241 nM, 810 nM, 5500 nM and 10200 nM.
The like results for `CCC(=O)CCCCC[C@H](NCC1CN(C)C1)c1ncc(-c2cc3ccc(C)nc3cc2OC)o1` [Compound 401, (9S)-9-[5-(7-methoxy-2-methylquinolin-6-yl)-1,3-oxazol-2-yl]-9-{[(1-methylazetidin-3-yl)methyl]amino}nonan-3-one] were, in that order, above 900 nM, 51.3 nM, 179 nM, 1840 nM and 2210 nM.
`CCN[C@@H](CCCCCC(=O)CC)c1ncc(-c2cc3ccc(C)nc3cc2OC)[nH]1` [Compound 403]: the half-maximal inhibitory concentration (IC50) was above 900 nM at Recombinant human HDAC8, 283 nM in experiment [1] and above 900 nM at Recombinant human HDAC2. Further, the half-maximal effective concentration (EC50) in the experiment with KARN cells (Jurkat 2C4) (setting [2]) came to 5340 nM; in the experiment on KARN cells (Jurkat 2C4) (setting [3]), 5600 nM.
On to `CCC(=O)CCCCC[C@H](NCc1ccncc1)c1ncc(-c2cc3ccc(C)nc3cc2OC)[nH]1` [Compound 404], for which the IC50 on Recombinant human HDAC8 was above 900 nM; in experiment [1], 501 nM; at Recombinant human HDAC2, above 900 nM. The half-maximal effective concentration (EC50) in the experiment on KARN cells (Jurkat 2C4) (setting [2]) and with KARN cells (Jurkat 2C4) (setting [3]) was above 40000 nM in each case.
Turning to `CCC(=O)CCCCC[C@H](NC(=O)[C@H]1CC12CCN(C)CC2)c1ncc(-c2cc3ccncc3cc2OC)o1` [Compound 405], the half-maximal inhibitory concentration (IC50) on Recombinant human HDAC8 was above 900 nM; in experiment [1], 0.7 nM; on Recombinant human HDAC2, 2 nM. Also, the values for the concentration giving a half-maximal response (EC50) in the experiment on KARN cells (Jurkat 2C4) (setting [2]) and in the experiment on KARN cells (Jurkat 2C4) (setting [3]) were 65 nM and 57 nM, respectively.
